Where “and” joins values, the source holds several entries; their conditions need not be identical. Equal values may be shown once.
Tests used:
[1] = Sprague-Dawley rat pharmacokinetics (IV and PO); assay type: in vivo; settings: rat, plasma; male Sprague-Dawley rats, PO 5 mg/kg (IV 1 mg/kg), cassette mode, Method 1; read-out: PO F (%)
Method in brief: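 Male Sprague-Dawley rats (2 per arm) dosed in cassette (up to 5 compounds) at 1 mg/kg IV and 5 mg/kg PO, formulated in 5% DMSO/40% PEG-400/55% water. Plasma sampled over time, acetonitrile-precipitated with internal standard, and quantified by LC/MS/MS against matrix-matched standards.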

[2] = Plasma stability assay, mouse plasma; assay type: in vitro ADME; settings: 37° C., Method 1 (5 μM)
Method: Exemplary compounds of the disclosure are stable upon incubation in mouse plasma. Stability is expressed as a % remaining after 120 minutes. The experimental methods and results (Table 2) are provided hereinafter.
Plasma Stability Assay, Method 1
From stock solution of compound in 10 mM DMSO, a working solution of 1 mM is prepared by diluting the compound in DMSO. To 398 μL of plasma pre-warmed at 37° C. for 15 minutes), 2 μL of working solution of compound is added, resulting in a final concentration of 5 μM (0.5% DMSO) for the compound. The sample is then incubated at 37° C. Aliquot is withdrawn at specified time-points (0, 15, 30, 60 and 120 mins). The reaction is stopped by addition of 450 μL cold acetonitrile containing internal standard (IS). […] Aliquots of the supernatant is analysed using LC-MS/MS. The percent remaining of the compound at each time point is calculated with respect to the control sample (0 min time-point).
Plasma Stability Assay, Method 2
A working solution of compound (500 μM) is prepared in DMSO (100%). To 735 μL of plasma, 15 μL of working solution of compound is added—resulting in a final concentration of 10 μM (2% DMSO) for the compound. […] The samples are centrifuged and the supernatants analyzed using LC-MS/MS. The percent remaining of the compound at each time point is calculated with respect to the control sample (0 min time-point).

IL-22 = experiment: Human PBMC assay, IL-22 by ELISA (CD2/CD3/CD28 bead stimulation); assay type: cell-based; settings: 72 hours
Method: CD2, CD3, and CD28 antibody-coated beads from the T-cell activation/expansion kit (Miltenyi Biotec) were added to the PBMC at a bead-to-cell ratio of 1:2. The mixture of PBMCs and beads were seeded into the wells of the round-bottom 96-well plate at a concentration of 2×10^5 cells/well in a total volume of 200 μL. The cells were cultured for 72 hours at 37° C. and 5% CO2 and then supernatants were collected and IL-17A and IL-22 levels were measured by ELISA. […] The final compound concentration ranged from 30,000 nM to 0.005 nM and the final DMSO concentration per well was 0.3%. PBMCs were seeded at approximately […] in the wells of the 96-well tissue culture plate in a total volume of 190 μL. The plate was incubated for 1 hour at 37° C. and 5% CO2. […] The cells were then cultured for 24 hours at 37° C. and 5% CO2. The supernatant was collected and CXCL10 levels were measured by ELISA.

[3] = Pharmacokinetics of Example 101 in Lewis rats (oral, CIA study); assay type: in vivo, Lewis rat; settings: day 20, 10 mg/kg, individual test subjects
UUO model: serum urea = assay type: in vivo, rat; settings: UUO rats; 30 mg/kg; compared with sham and UUO + vehicle
Source text: Serum for blood biochemistry analysis was collected into centrifuge tubes without coagulant four hours after final dosing. Blood plasma samples from group 3 was collected into tubes with K2EDTA four hours after final dosing. At the conclusion of the study (end of the 14-day period), animals were euthanized. Kidney tissue was collected four hours after final dosing. Ligated side kidney was divided into three copies 1/3 fix into 10% formalin for H&E analysis, 1/3 into RNA for PCR analysis of tissue biomarkers Col1a1, TGF-b1, MCP-1, IL-1b, IL-6, IL-17, TNF-a, and Timp1, and 1/3 for hydroxyproline assay analyzed by ELISA. RNA was extracted from tissue using the RNeasy mini kit (Qiagen). RNA concentration was measured using a NanoDrop One Spectrophotometer (ThermoFisher) and converted to cDNA using a High-Capacity RNA-to-cDNA kit (Invitrogen). RT-PCR was performed to measure levels of mRNA of different targets using TaqMan® Gene Expression Master Mix and TaqMan® probe/primer sets on a QuantStudio 6 Real-Time PCR System (ThermoFisher). Fold change in target gene expression was determined using the ΔΔCt method.

[4] = Pharmacokinetics of Example 101 in Lewis rats (oral, CIA study); assay type: in vivo, Lewis rat
Method: Blood samples were collected from animals in group 8 on Day 0, and blood samples were collected from group 9 on Day 20. Blood samples from group 8 and group 9 were collected at 0.25, 0.5, 1, 2, 4, 8, 10, 12, 13, and 24-hours following morning administration of their first dose of the compound. The second dose of the compound was administered after the 8-hour collection timepoint. All blood samples were collected at the eye socket and put into tubes containing EDTA-K2 as an anticoagulant and centrifuged at 4° C. at 4,000×g for 5 minutes. Plasma was transferred to a separate tube and stored at −75±15° C. for PK analysis. Pharmacokinetic analyses for Example 101 in Lewis rats were performed as described in Experimental Method B.

[5] = day 0, 10 mg/kg, individual test subjects
[6] = day 20, 10 mg/kg, individual test subjects

## CNC(=O)c1[nH]c(C(=O)NC2CCC2)cc1O[C@@H](C)c1ccccc1 [Example 101, N^5-cyclobutyl-N^2-methyl-3-(1-phenylethoxy)-1H-pyrrole-2,5-dicarboxamide]
[1]
  bioavailability: 66%
[2]
  Plasma Stability (% remaining at 120 minutes) Mouse: >99%
IL-22
  IC50 for IL-22 relative to GSK620: substantially lower 1050
[3]
  Plasma concentration at 14 h: 68.5 ng/mL and 159 ng/mL and 185 ng/mL
UUO model: serum urea
  serum urea levels: No significant differences
[4]; [5]
  AUClast/D: 820 kg·ng·h/mL/mg and 720 kg·ng·h/mL/mg
  Plasma concentration at 0.25 h: 375 ng/mL and 378 ng/mL and 754 ng/mL
  Plasma concentration at 24 h: 14.3 ng/mL and 35.6 ng/mL and 122 ng/mL
  T1/2: 2.13 h and 2.54 h and 5.01 h
  Tmax: 10.0 h (2×) and 2.00 h
[4]; day 0, 10 mg/kg, mean
  AUCInf, Mean: 15371 ng·h/mL
  AUClast, Mean: 15019 ng·h/mL
  AUClast/D, Mean: 751 kg·ng·h/mL/mg
  AUC—% Extrap_obs, Mean: 2.29%
  MRTInf_obs, Mean: 8.61 h
[4]; [6]
  AUC—% Extrap_obs: 0.700%
  Cmax: 1660 ng/mL
  Plasma concentration at 8 h: 103 ng/mL and 215 ng/mL and 188 ng/mL
  Plasma concentration at 24 h: 16.7 ng/mL and 20.1 ng/mL and 38.1 ng/mL
[4]; day 20, 10 mg/kg, mean
  AUClast/D, Mean: 528 kg·ng·h/mL/mg
  AUC—% Extrap_obs, Mean: 1.11%
  Cmax, Mean: 1707 ng/mL
  MRTInf_obs, Mean: 6.66 h
